Results taken from patent US10577363B2, “Substituted piperidine compounds” (EPIZYME, INC., priority 2014, dated 2020).

Tests used:
SMYD3 [1] = target: T1, SMYD3 (Homo sapiens (Human), UniProt Q9H7B4); assay: SMYD3 cell assay (Trimethyl-MEKK2 In-Cell Western in 293T/17 cells); assay type: cell-based; details: Table 2A; read-out: SMYD3 Cell IC50
Method in brief: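 In-Cell Western ratio of trimethyl-Lys260 MEKK2 to anti-flag signal; percent inhibition from DMSO and maximum-inhibition controls, IC50 by non-linear regression, triplicates.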

SMYD3 [2] = target: T1, SMYD3; assay: SMYD3 biochemical assay (SPA, 3H-SAM methylation of MEKK2 protein substrate); details: Table 2A; read-out: SMYD3 Biochem IC50
Method in brief: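 Tritium incorporation into GST-MEKK2 is counted by scintillation proximity after citric acid bead capture. Native human SMYD3 is preincubated with test compound for 30 min at room temperature at pH 8.0 (Tris-Cl, TCEP, BSG, Tween 20) before 3H-SAM and substrate are added; cold SAM at 100 uM final stops turnover.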

T1 sequence (Q9H7B4 whole entry): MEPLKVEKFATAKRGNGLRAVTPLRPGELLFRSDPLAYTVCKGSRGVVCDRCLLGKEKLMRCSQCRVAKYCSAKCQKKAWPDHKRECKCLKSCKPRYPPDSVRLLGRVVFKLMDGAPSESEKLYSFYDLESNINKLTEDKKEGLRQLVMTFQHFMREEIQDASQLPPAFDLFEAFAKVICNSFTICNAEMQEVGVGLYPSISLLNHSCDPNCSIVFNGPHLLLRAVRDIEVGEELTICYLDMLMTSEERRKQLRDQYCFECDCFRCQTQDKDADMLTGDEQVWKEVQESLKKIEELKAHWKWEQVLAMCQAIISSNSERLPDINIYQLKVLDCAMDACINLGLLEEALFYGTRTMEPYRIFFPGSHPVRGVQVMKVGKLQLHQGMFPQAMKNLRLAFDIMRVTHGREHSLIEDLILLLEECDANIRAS

SMILES	IC50 (SMYD3 [1]) [nM]	IC50 (SMYD3 [2]) [nM]
O=C(N[C@H]1C[C@H]2CC[C@@H](C1)N2S(=O)(=O)CC1CCN(CCO)CC1)c1cc(C2CC2)on1 [compound 531, 5-cyclopropyl-N-((1R,3r,5S)-8-(((1-(2-hydroxyethyl)piperidin-4-yl)methyl)sulfonyl)-8-azabicyclo[3.2.1]octan-3-yl)isoxazole-3-carboxamide]	33.1	0.9
O=C(N[C@H]1C[C@H]2CC[C@@H](C1)N2S(=O)(=O)CC1CCN(CCCO)CC1)c1cc(C2CC2)on1 [compound 534, 5-cyclopropyl-N-((1R,3r,5S)-8-(((1-(3-hydroxypropyl)piperidin-4-yl)methyl)sulfonyl)-8-azabicyclo[3.2.1]octan-3-yl)isoxazole-3-carboxamide]	27.7	1.1
CNC1CCN(S(=O)(=O)N2CC[C@H](NC(=O)c3cc(C4CC4)on3)C[C@@H]2C)CC1 [compound 535, 5-cyclopropyl-N-((2S,4S)-2-methyl-1-((4-(methylamino)piperidin-1-yl)sulfonyl)piperidin-4-yl)isoxazole-3-carboxamide]	21.2	1.2
O=C(N[C@H]1C[C@H]2CC[C@@H](C1)N2S(=O)(=O)CC1CCN(Cc2ccccc2)CC1)c1cc(C2CC2)on1 [compound 536, N-((1R,3r,5S)-8-(((1-benzylpiperidin-4-yl)methyl)sulfonyl)-8-azabicyclo[3.2.1]octan-3-yl)-5-cyclopropylisoxazole-3-carboxamide]	58	1.2
COCCCN1CCC(CS(=O)(=O)N2[C@@H]3CC[C@H]2C[C@@H](NC(=O)c2cc(C4CC4)on2)C3)CC1 [compound 542, 5-cyclopropyl-N-((1R,3r,5S)-8-(((1-(3-methoxypropyl)piperidin-4-yl)methyl)sulfonyl)-8-azabicyclo[3.2.1]octan-3-yl)isoxazole-3-carboxamide]	49.6	1.6
C[C@H]1C[C@@H](NC(=O)c2cc(C3CC3)on2)CCN1S(=O)(=O)N1CCC(N(C)C)CC1 [compound 545, 5-cyclopropyl-N-((2S,4S)-1-((4-(dimethylamino)piperidin-1-yl)sulfonyl)-2-methylpiperidin-4-yl)isoxazole-3-carboxamide]	39.9	2
C[C@H]1C[C@@H](NC(=O)c2cc(C3CC3)on2)CCN1S(=O)(=O)N1CCC(NCc2ccccc2)CC1 [compound 546, N-((2S,4S)-1-((4-(benzylamino)piperidin-1-yl)sulfonyl)-2-methylpiperidin-4-yl)-5-cyclopropylisoxazole-3-carboxamide]	36	2.1
O=C(N[C@H]1C[C@H]2CC[C@@H](C1)N2S(=O)(=O)CC1CCCNC1)c1cc(C2CC2)on1 (stereo partly drawn) [compound 547, 5-cyclopropyl-N-((1R,3r,5S)-8-((piperidin-3-ylmethyl)sulfonyl)-8-azabicyclo[3.2.1]octan-3-yl)isoxazole-3-carboxamide]	70.4	2.3
C[C@H]1C[C@@H](NC(=O)c2cc(C3CC3)on2)CCN1S(=O)(=O)CCCCN [compound 548, N-((2S,4S)-1-((4-aminobutyl)sulfonyl)-2-methylpiperidin-4-yl)-5-cyclopropylisoxazole-3-carboxamide]	94.1	2.4
O=C(N[C@H]1C[C@H]2CC[C@@H](C1)N2S(=O)(=O)CC1CCN(CCN2CCCCC2)CC1)c1cc(C2CC2)on1 [compound 549, 5-cyclopropyl-N-((1R,3r,5S)-8-(((1-(2-(piperidin-1-yl)ethyl)piperidin-4-yl)methyl)sulfonyl)-8-azabicyclo[3.2.1]octan-3-yl)isoxazole-3-carboxamide]	312	2.5
O=C(N[C@H]1C[C@H]2CC[C@@H](C1)N2S(=O)(=O)CC1CCN(CCC(F)(F)F)CC1)c1cc(C2CC2)on1 [compound 551, 5-cyclopropyl-N-((1R,3r,5S)-8-(((1-(3,3,3-trifluoropropyl)piperidin-4-yl)methyl)sulfonyl)-8-azabicyclo[3.2.1]octan-3-yl)isoxazole-3-carboxamide]	54.2	2.9
NC1CC2(C1)CN(S(=O)(=O)N1[C@@H]3CC[C@H]1C[C@@H](NC(=O)c1cc(C4CC4)on1)C3)C2 [compound 552, N-((1R,3r,5S)-8-((6-amino-2-azaspiro[3.3]heptan-2-yl)sulfonyl)-8-azabicyclo[3.2.1]octan-3-yl)-5-cyclopropylisoxazole-3-carboxamide]	49.2	3.1
COCCN1CCC(CS(=O)(=O)N2[C@@H]3CC[C@H]2C[C@@H](NC(=O)c2cc(C4CC4)on2)C3)CC1 [compound 556, 5-cyclopropyl-N-((1R,3r,5S)-8-(((1-(2-methoxyethyl)piperidin-4-yl)methyl)sulfonyl)-8-azabicyclo[3.2.1]octan-3-yl)isoxazole-3-carboxamide]	55.7	3.9
C[C@H]1C[C@@H](NC(=O)c2cc(C3CC3)on2)CCN1S(=O)(=O)N1CCNCC1 [compound 558, 5-cyclopropyl-N-((2S,4S)-2-methyl-1-(piperazin-1-ylsulfonyl)piperidin-4-yl)isoxazole-3-carboxamide]	71.9	4.3
CN1C2CCC1CN(S(=O)(=O)N1[C@@H]3CC[C@H]1C[C@@H](NC(=O)c1cc(C4CC4)on1)C3)C2 [compound 560, 5-cyclopropyl-N-((1R,3r,5S)-8-((8-methyl-3,8-diazabicyclo[3.2.1]octan-3-yl)sulfonyl)-8-azabicyclo[3.2.1]octan-3-yl)isoxazole-3-carboxamide]	51.6	4.8
CNCCNCCCS(=O)(=O)N1[C@@H]2CC[C@H]1C[C@@H](NC(=O)c1cc(C3CC3)on1)C2 [compound 563, 5-cyclopropyl-N-((1R,3r,5S)-8-((3-((2-(methylamino)ethyl)amino)propyl)sulfonyl)-8-azabicyclo[3.2.1]octan-3-yl)isoxazole-3-carboxamide]	339	5.3
NCCNCCCS(=O)(=O)N1[C@@H]2CC[C@H]1C[C@@H](NC(=O)c1cc(C3CC3)on1)C2 [compound 564, N-((1R,3r,5S)-8-((3-((2-aminoethyl)amino)propyl)sulfonyl)-8-azabicyclo[3.2.1]octan-3-yl)-5-cyclopropylisoxazole-3-carboxamide]	166	5.3

Further lines, results first:

IC50 (SMYD3 [1]) [nM]	IC50 (SMYD3 [2]) [nM]	SMILES
23.9	0.9	C[C@H]1C[C@@H](NC(=O)c2cc(C3CC3)on2)CCN1S(=O)(=O)CC1CCN(CCc2ccccc2)CC1 [compound 530, 5-cyclopropyl-N-((2S,4S)-2-methyl-1-(((1-phenethylpiperidin-4-yl)methyl)sulfonyl)piperidin-4-yl)isoxazole-3-carboxamide]
30.8	1	C[C@H]1C[C@@H](NC(=O)c2cc(C3CC3)on2)CCN1S(=O)(=O)CC1CCN(C)CC1 [compound 533, 5-cyclopropyl-N-((2S,4S)-2-methyl-1-(((1-methylpiperidin-4-yl)methyl)sulfonyl)piperidin-4-yl)isoxazole-3-carboxamide]
72.5	1.3	C[C@@H]1C[C@H](NC(=O)c2cc(C3CC3)on2)CCN1S(=O)(=O)CC1CCN(CCc2ccccc2)CC1 [compound 537, 5-cyclopropyl-N-((2R,4R)-2-methyl-1-(((1-phenethylpiperidin-4-yl)methyl)sulfonyl)piperidin-4-yl)isoxazole-3-carboxamide]
29.4	1.3	C[C@H]1C[C@@H](NC(=O)c2cc(C3CC3)on2)CCN1S(=O)(=O)CC1CCN(CCO)CC1 [compound 538, 5-cyclopropyl-N-((2S,4S)-1-(((1-(2-hydroxyethyl)piperidin-4-yl)methyl)sulfonyl)-2-methylpiperidin-4-yl)isoxazole-3-carboxamide]
44.7	1.9	C[C@H]1C[C@@H](NC(=O)c2cc(C3CC3)on2)CCN1S(=O)(=O)CC1CCN(Cc2ccccc2)CC1 [compound 544, N-((2S,4S)-1-(((1-benzylpiperidin-4-yl)methyl)sulfonyl)-2-methylpiperidin-4-yl)-5-cyclopropylisoxazole-3-carboxamide]
168	2.6	CC(C)N1CCC(CS(=O)(=O)N2CC[C@H](NC(=O)c3cc(C4CC4)on3)C[C@@H]2C)CC1 [compound 550, 5-cyclopropyl-N-((2S,4S)-1-(((1-isopropylpiperidin-4-yl)methyl)sulfonyl)-2-methylpiperidin-4-yl)isoxazole-3-carboxamide]
106	3.4	C[C@H]1C[C@@H](NC(=O)c2cc(C3CC3)on2)CCN1S(=O)(=O)CC1CCN(CCN2CCCCC2)CC1 [compound 553, 5-cyclopropyl-N-((2S,4S)-2-methyl-1-(((1-(2-(piperidin-1-yl)ethyl)piperidin-4-yl)methyl)sulfonyl)piperidin-4-yl)isoxazole-3-carboxamide]
70.4	3.5	COCCN1CCC(CS(=O)(=O)N2CC[C@H](NC(=O)c3cc(C4CC4)on3)C[C@@H]2C)CC1 [compound 554, 5-cyclopropyl-N-((2S,4S)-1-(((1-(2-methoxyethyl)piperidin-4-yl)methyl)sulfonyl)-2-methylpiperidin-4-yl)isoxazole-3-carboxamide]
261	4.2	CC(C)CN1CCC(CS(=O)(=O)N2CC[C@H](NC(=O)c3cc(C4CC4)on3)C[C@@H]2C)CC1 [compound 557, 5-cyclopropyl-N-((2S,4S)-1-(((1-isobutylpiperidin-4-yl)methyl)sulfonyl)-2-methylpiperidin-4-yl)isoxazole-3-carboxamide]
